Assay results published in patent US8114994B2, “2′ and 3′-substituted cyclobutyl nucleoside analogs for the treatment viral infections and abnormal cellular proliferation” (Emory University, priority 2004, dated 2012).

What was measured:
[1] = target: T1, HIV-RT from viral-lysate (WT) (Human immunodeficiency virus type 1 group M subtype B, UniProt P04585); test: Inhibition of HIV-RT from viral-lysate (WT); assay type: biochemical; settings: for % Inhibition / cpm/ml: RT from viral lysate (WT); for IC50: HIV RT (WT) from viral lysates from infected PBMC, triplicates from one experiment
T1 construct: from tissue; host or cells: HIV viral lysate

HIV RT (M/I) = target: T2, HIV RT (M/I) (Human immunodeficiency virus type 1 group M subtype B, UniProt P04585, M771I); test: Inhibition of HIV-RT from viral lysate, M184I mutant (M/I); assay type: biochemical; settings: for % Inhibition / cpm/ml: M/I RT; for IC50: HIV RT (M/I) from viral lysates from infected PBMC, triplicates from one experiment
T2 construct: from tissue; host or cells: HIV viral lysate (M184I mutant strain)

HIV RT (M/V) = target: T3, HIV RT (M/V) (Human immunodeficiency virus type 1 group M subtype B, UniProt P04585, M771V); test: Inhibition of HIV-RT from viral-lysate (M/V), M184V mutant; assay type: biochemical; settings: for % Inhibition / cpm/ml: RT from viral lysate (M/V); for IC50: HIV RT (M/V) from viral lysates from infected PBMC, triplicates from one experiment
T3 construct: from tissue; host or cells: HIV viral lysate (M184V mutant strain)

Recombinant HIV RT (WT) = target: T4, Recombinant HIV RT (WT) (Human immunodeficiency virus type 1 group M subtype B, UniProt P04585); test: RT assay, recombinant wild type HIV-RT (cell-free); assay type: biochemical; settings: triplicates from one experiment, read-out: Inhibition of RT Activity (IC50)
T4 construct: was evaluated against recombinant wild type HIV-RT
Method: [drawing 29] was evaluated against recombinant wild type HIV-RT, as well as the M184I and M184V mutants, according to the RT assay described in Eriksson B F, Chu C K, Schinazi R F; Antimicrob. Agents Chemother. 1989, 33, 1729-1734. The results are tabulated in Tables 2-5 and depicted in FIGS. 1-3.

HIV [2] = test: Anti-HIV activity in PBM cells; assay type: cell-based; settings: Human immunodeficiency virus 1, PBMC
Method: (§1) The cyclobutyl nucleoside analogs (CBN) were evaluated for their anti-HIV activity and cytotoxicity in PBM, CEM and Vero cells, according to known procedures.
(§2) The following cyclobutyl nucleoside compounds were evaluated for their anti-HIV activity and cytotoxicity in PBM cells, according to standard procedures.

PBM cells = test: Toxicity in PBM cells; assay type: cell-based; settings: PBMC
Method: as §1, §2

Vero cells = test: Toxicity in Vero cells; assay type: cell-based; settings: Chlorocebus sabaeus
Method: as §1, §2

CEM cells = test: Toxicity in CEM cells; assay type: cell-based; settings: Homo sapiens, CCRF-CEM
Method: as §1, §2

HIV [3] = test: Anti-HIV activity in PBM cells; assay type: cell-based; settings: Example 114, refers to Table 6
HIV [4] = settings: after 28 days treatment; preliminary human data; cited from earlier work

5-fluoro-1-[cis-3-(hydroxymethyl)-cyclobutyl]-cytosine triphosphate [DLS183-TP]
% Inhibition ([1]; 0.1 μM): 0.01% | cpm/ml ([1]; 0.1 μM): 280781.826 cpm/ml | % Inhibition ([1]; 1 μM): 18% | cpm/ml ([1]; 1 μM): 228126.312 cpm/ml | % Inhibition ([1]; 10 μM): 51% | cpm/ml ([1]; 10 μM): 134616.36 cpm/ml | IC50 [1]: 6.85 µM | % Inhibition (HIV RT (M/I); 0.1 μM): 0.01% | cpm/ml (HIV RT (M/I); 0.1 μM): 407041.44 cpm/ml | % Inhibition (HIV RT (M/I); 1 μM): 20% | cpm/ml (HIV RT (M/I); 1 μM): 272130.486 cpm/ml | % Inhibition (HIV RT (M/I); 10 μM): 53% | cpm/ml (HIV RT (M/I); 10 μM): 160719.12 cpm/ml | IC50 (HIV RT (M/I)): 6.06 µM | % Inhibition (HIV RT (M/V); 0.1 μM): 5% | cpm/ml (HIV RT (M/V); 0.1 μM): 297603.432 cpm/ml | % Inhibition (HIV RT (M/V); 1 μM): 22% | cpm/ml (HIV RT (M/V); 1 μM): 245062.692 cpm/ml | % Inhibition (HIV RT (M/V); 10 μM): 51% | cpm/ml (HIV RT (M/V); 10 μM): 152688.27 cpm/ml | IC50 (HIV RT (M/V)): 6.91 µM | IC50 (Recombinant HIV RT (WT)): 4.74 µM

Nc1ccn([C@@H]2CS[C@H](COP(=O)(O)OP(=O)(O)OP(=O)(O)O)O2)c(=O)n1 [Compound 3TC-TP, reference compound]
% Inhibition ([1]; 0.1 μM): 3.1% | cpm/ml ([1]; 0.1 μM): 268420.2 cpm/ml | % Inhibition ([1]; 1 μM): 22% | cpm/ml ([1]; 1 μM): 215883.012 cpm/ml | % Inhibition ([1]; 10 μM): 55% | cpm/ml ([1]; 10 μM): 124341.312 cpm/ml | IC50 [1]: 6.53 µM | % Inhibition (HIV RT (M/I); 0.1 μM): 0.03% | cpm/ml (HIV RT (M/I); 0.1 μM): 329435.346 cpm/ml | % Inhibition (HIV RT (M/I); 1 μM): 0.03% | cpm/ml (HIV RT (M/I); 1 μM): 329605.62 cpm/ml | % Inhibition (HIV RT (M/I); 10 μM): 13% | cpm/ml (HIV RT (M/I); 10 μM): 298628.406 cpm/ml | IC50 (HIV RT (M/I)): > 10 µM | % Inhibition (HIV RT (M/V); 0.1 μM): 13% | cpm/ml (HIV RT (M/V); 0.1 μM): 270239.712 cpm/ml | % Inhibition (HIV RT (M/V); 1 μM): 7% | cpm/ml (HIV RT (M/V); 1 μM): 288267.666 cpm/ml | % Inhibition (HIV RT (M/V); 10 μM): 0.01% | cpm/ml (HIV RT (M/V); 10 μM): 336946.272 cpm/ml | IC50 (HIV RT (M/V)): > 10 µM | IC50 (Recombinant HIV RT (WT)): 2.99 µM

O=c1ccn([C@@H]2C[C@H](CO)C2F)c(=O)[nH]1 (stereo partly drawn) [DLS-194]
EC50 (HIV [2]): > 100 µM

Nc1ccn([C@@H]2C[C@H](CO)C2F)c(=O)n1 (stereo partly drawn) [DLS-195]
EC50 (HIV [2]): > 100 µM

O=c1[nH]c(=O)n([C@@H]2C[C@H](CO)C2F)cc1F (stereo partly drawn) [DLS-196]
EC50 (HIV [2]): > 100 µM

OC[C@H]1C[C@@H](n2cnc3c(Cl)ncnc32)C1F (stereo partly drawn) [DLS-197]
EC50 (HIV [2]): > 100 µM

Nc1ncnc2c1ncn2[C@@H]1C[C@H](CO)C1F (stereo partly drawn) [DLS-206]
IC50 (PBM cells): > 100 µM | IC50 (Vero cells): > 100 µM | IC50 (CEM cells): > 100 µM | EC50 (HIV [2]): 50.4 µM | EC90 (HIV [2]): > 100 µM | inhibition of HIV-RT (in words) (HIV [3]): significant inhibition

Nc1ncnc2c1ncn2[C@@H]1C[C@H](CO)C1O (stereo partly drawn) [DLS-207]
IC50 (PBM cells): 13.8 µM | IC50 (Vero cells): 97.8 µM | IC50 (CEM cells): > 100 µM | EC50 (HIV [2]): 33.7 µM | EC90 (HIV [2]): 60.1 µM | inhibition of HIV-RT (in words) (HIV [3]): significant inhibition

O=c1[nH]c(=O)n(C[C@@H]2C[C@H](CO)C2O)cc1F (stereo partly drawn) [DLS-210]
EC50 (HIV [2]): > 100 µM

Nc1ncnc2c1ncn2C[C@H]1C[C@H](CO)C1 [DLS-211]
EC50 (HIV [2]): > 100 µM

Nc1ncnc2c1ncn2CC1CC(CO)C1 (stereo not drawn) [DLS-212]
EC50 (HIV [2]): > 100 µM

Nc1nc(O[C@@H]2C[C@H](CO)C2F)ncc1F (stereo partly drawn) [DLS-221]
EC50 (HIV [2]): > 100 µM

Nc1nc(=O)n([C@@H]2C[C@H](CO)C2F)cc1F (stereo partly drawn) [DLS-222]
EC50 (HIV [2]): > 100 µM

Nc1nc2c(ncn2[C@@H]2C[C@H](CO)C2F)c(=O)[nH]1 (stereo partly drawn) [DLS-223]
IC50 (PBM cells): > 100 µM | IC50 (Vero cells): > 100 µM | IC50 (CEM cells): > 100 µM | EC50 (HIV [2]): 27.7 µM | EC90 (HIV [2]): > 100 µM | inhibition of HIV-RT (in words) (HIV [3]): significant inhibition

Nc1nc2c(ncn2[C@@H]2CC(CO)C2CO)c(=O)[nH]1 (stereo partly drawn) [lobucavir, (R)-9-[2,3-Bis(hydroxymethyl)cyclobutyl]guanine]
reductions in HIV viral load (HIV [4]): ≤ 1.5 log
